Assay results reported in ChEMBL document CHEMBL3046685, “Otebo bean (Phaseolus vulgaris) sensitivity to pre-emergence herbicides” (Crop Prot, 2006).

Tests used:
[1] = tested on: Phaseolus vulgaris; assay: Phytotoxicity in Phaseolus vulgaris (otebo bean) assessed as plant height at 1250 g ai/ha applied as spray during pre-emergence treatment for 1 to 2 days measured 28 days post emergence (reference value: 29 cm); type: organism-based; conditions: in vivo, other
[2] = tested on: Vigna angularis; assay: Phytotoxicity in Vigna angularis (adzuki bean) assessed as reduction in shoot dry weight at 2500 g ai/ha applied prior to planting relative to control; type: organism-based; design: scale not given: the % may be the effect or the level left; conditions: in vivo, other
[3] = tested on: Phaseolus vulgaris; assay: Increase in Phaseolus vulgaris (otebo bean) yield at 2500 g ai/ha applied as spray during pre-emergence treatment for 1 to 2 days (reference value: 3.8 t/ha); type: functional
[4] = tested on: Phaseolus vulgaris; assay: Increase in Phaseolus vulgaris (otebo bean) yield at 1250 g ai/ha applied as spray during pre-emergence treatment for 1 to 2 days (reference value: 3.8 t/ha); type: functional
[5] = tested on: Vigna angularis; assay: Phytotoxicity in Vigna angularis (adzuki bean) assessed as visual injury at 2500 g ai/ha applied prior to planting relative to control; type: organism-based; conditions: in vivo, other
[6] = tested on: Vigna angularis; assay: Phytotoxicity in Vigna angularis (adzuki bean) assessed as reduction in crop yield at 2500 g ai/ha applied prior to planting relative to control; type: organism-based; conditions: in vivo, other
[7] = tested on: Phaseolus vulgaris; assay: Phytotoxicity in Phaseolus vulgaris (otebo bean) assessed as change in moisture content at 1250 to 2500 g ai/ha applied as spray during preemergence treatment for 1 to 2 days; type: organism-based; conditions: in vivo, other
[8] = tested on: Phaseolus vulgaris; assay: Phytotoxicity in Phaseolus vulgaris (otebo bean) assessed as visual injury at 1250 g ai/ha applied as spray during pre-emergence treatment for 1 to 2 days measured 7 days post emergence relative to untreated control; type: organism-based; conditions: in vivo, other
[9] = tested on: Phaseolus vulgaris; assay: Phytotoxicity in Phaseolus vulgaris (otebo bean) assessed as shoot dry weight at 2500 g ai/ha applied as spray during pre-emergence treatment for 1 to 2 days measured 42 days post emergence (reference value: 164 g); type: organism-based; conditions: in vivo, other
[10] = tested on: Phaseolus vulgaris; assay: Phytotoxicity in Phaseolus vulgaris (otebo bean) assessed as shoot dry weight at 1250 g ai/ha applied as spray during pre-emergence treatment for 1 to 2 days measured 42 days post emergence (reference value: 164 g); type: organism-based; conditions: in vivo, other
[11] = tested on: Phaseolus vulgaris; assay: Phytotoxicity in Phaseolus vulgaris (otebo bean) assessed as plant height at 2500 g ai/ha applied as spray during pre-emergence treatment for 1 to 2 days measured 28 days post emergence (reference value: 29 cm); type: organism-based; conditions: in vivo, other
[12] = tested on: Phaseolus vulgaris; assay: Phytotoxicity in Phaseolus vulgaris (otebo bean) assessed as visual injury at 2500 g ai/ha applied as spray during pre-emergence treatment for 1 to 2 days measured 28 days post emergence relative to untreated control; type: organism-based; conditions: in vivo, other
[13] = tested on: Phaseolus vulgaris; assay: Phytotoxicity in Phaseolus vulgaris (otebo bean) assessed as visual injury at 1250 g ai/ha applied as spray during pre-emergence treatment for 1 to 2 days measured 28 days post emergence relative to untreated control; type: organism-based; conditions: in vivo, other
[14] = tested on: Phaseolus vulgaris; assay: Phytotoxicity in Phaseolus vulgaris (otebo bean) assessed as visual injury at 2500 g ai/ha applied as spray during pre-emergence treatment for 1 to 2 days measured 14 days post emergence relative to untreated control; type: organism-based; conditions: in vivo, other
[15] = tested on: Phaseolus vulgaris; assay: Phytotoxicity in Phaseolus vulgaris (otebo bean) assessed as visual injury at 1250 g ai/ha applied as spray during pre-emergence treatment for 1 to 2 days measured 14 days post emergence relative to untreated control; type: organism-based; conditions: in vivo, other
[16] = tested on: Phaseolus vulgaris; assay: Phytotoxicity in Phaseolus vulgaris (otebo bean) assessed as visual injury at 2500 g ai/ha applied as spray during pre-emergence treatment for 1 to 2 days measured 7 days post emergence relative to untreated control; type: organism-based; conditions: in vivo, other
[17] = tested on: Phaseolus vulgaris; assay: Phytotoxicity in Phaseolus vulgaris (otebo bean) assessed as plant height at 3200 g ai/ha applied as spray during pre-emergence treatment for 1 to 2 days measured 28 days post emergence (reference value: 29 cm); type: organism-based; conditions: in vivo, other
[18] = tested on: Phaseolus vulgaris; assay: Phytotoxicity in Phaseolus vulgaris (otebo bean) assessed as plant height at 1600 g ai/ha applied as spray during pre-emergence treatment for 1 to 2 days measured 28 days post emergence (reference value: 29 cm); type: organism-based; conditions: in vivo, other
[19] = tested on: Phaseolus vulgaris; assay: Phytotoxicity in Phaseolus vulgaris (otebo bean) assessed as shoot dry weight at 3200 g ai/ha applied as spray during pre-emergence treatment for 1 to 2 days measured 42 days post emergence (reference value: 164 g); type: organism-based; conditions: in vivo, other
[20] = tested on: Phaseolus vulgaris; assay: Increase in Phaseolus vulgaris (otebo bean) yield at 3200 g ai/ha applied as spray during pre-emergence treatment for 1 to 2 days (reference value: 3.8 t/ha); type: functional
[21] = tested on: Phaseolus vulgaris; assay: Increase in Phaseolus vulgaris (otebo bean) yield at 1600 g ai/ha applied as spray during pre-emergence treatment for 1 to 2 days (reference value: 3.8 t/ha); type: functional
[22] = tested on: Phaseolus vulgaris; assay: Phytotoxicity in Phaseolus vulgaris (otebo bean) assessed as change in moisture content at 1600 to 3200 g ai/ha applied as spray during preemergence treatment for 1 to 2 days; type: organism-based; conditions: in vivo, other
[23] = tested on: Phaseolus vulgaris; assay: Phytotoxicity in Phaseolus vulgaris (otebo bean) assessed as shoot dry weight at 1600 g ai/ha applied as spray during pre-emergence treatment for 1 to 2 days measured 42 days post emergence (reference value: 164 g); type: organism-based; conditions: in vivo, other
[24] = tested on: Phaseolus vulgaris; assay: Phytotoxicity in Phaseolus vulgaris (otebo bean) assessed as visual injury at 3200 g ai/ha applied as spray during pre-emergence treatment for 1 to 2 days measured 28 days post emergence relative to untreated control; type: organism-based; conditions: in vivo, other
[25] = tested on: Phaseolus vulgaris; assay: Phytotoxicity in Phaseolus vulgaris (otebo bean) assessed as visual injury at 1600 g ai/ha applied as spray during pre-emergence treatment for 1 to 2 days measured 28 days post emergence relative to untreated control; type: organism-based; conditions: in vivo, other
[26] = tested on: Phaseolus vulgaris; assay: Phytotoxicity in Phaseolus vulgaris (otebo bean) assessed as visual injury at 3200 g ai/ha applied as spray during pre-emergence treatment for 1 to 2 days measured 14 days post emergence relative to untreated control; type: organism-based; conditions: in vivo, other
[27] = tested on: Phaseolus vulgaris; assay: Phytotoxicity in Phaseolus vulgaris (otebo bean) assessed as visual injury at 1600 g ai/ha applied as spray during pre-emergence treatment for 1 to 2 days measured 14 days post emergence relative to untreated control; type: organism-based; conditions: in vivo, other
[28] = tested on: Phaseolus vulgaris; assay: Phytotoxicity in Phaseolus vulgaris (otebo bean) assessed as visual injury at 3200 g ai/ha applied as spray during pre-emergence treatment for 1 to 2 days measured 7 days post emergence relative to untreated control; type: organism-based; conditions: in vivo, other
[29] = tested on: Phaseolus vulgaris; assay: Phytotoxicity in Phaseolus vulgaris (otebo bean) assessed as visual injury at 1600 g ai/ha applied as spray during pre-emergence treatment for 1 to 2 days measured 7 days post emergence relative to untreated control; type: organism-based; conditions: in vivo, other

## COCC(C)N(C(=O)CCl)c1c(C)csc1C (centres undefined) [DIMETHENAMID]
[1]
  Activity: 30 cm
[2]
  Activity: 53%
[3]
  Crop_yield: 4.5 tons/ha
[4]
  Crop_yield: 4.5 tons/ha
[5]
  Activity: 37%
[6]
  Crop_yield: 38%
[7]
  Activity: Non-toxic
[8]
  Activity: 1%
[9]
  Activity: 154 g
[10]
  Activity: 167 g
[11]
  Activity: 29 cm
[12]
  Activity: 1%
[13]
  Activity: 0%
[14]
  Activity: 3%
[15]
  Activity: 1%
[16]
  Activity: 4%

## CCc1cccc(C)c1N(C(=O)CCl)[C@@H](C)COC [S-METOLACHLOR]
[17]
  Activity: 29 cm
[18]
  Activity: 30 cm
[19]
  Activity: 164 g
[20]
  Crop_yield: 4.6 tons/ha
[21]
  Crop_yield: 4.1 tons/ha
[22]
  Activity: Non-toxic
[23]
  Activity: 175 g
[24]
  Activity: 0%
[25]
  Activity: 0%
[26]
  Activity: 2%
[27]
  Activity: 1%
[28]
  Activity: 4%
[29]
  Activity: 2%
